# According to paper PMC5924804, “Various Bee Pheromones Binding Affinity, Exclusive Chemosensillar Localization, and Key Amino Acid Sites Reveal the Distinctive Characteristics of Odorant-Binding Protein 11 in the Eastern Honey Bee, Apis cerana” (Frontiers in Physiology, 2018):
# Changes are numbered by the printed parent chain. Read-outs that look alike come from different tables or passages of the source.
# Assays:
# recombinant AcerOBP11 = recombinant AcerOBP11 (Apis cerana, UniProt S5CRW7); test: biochemical; type: binding
# Experimental: (§1) The interactions were monitored by recording 1-NPN fluorescence upon addition of 1-NPN aliquots with excitation wavelength of 337 nm, and emission wavelength of 350–450 nm, where the slit was 5 nm. Titrations were carried out at 25°C with 1 μmol/L recombinant protein in PBS buffer. The fluorescence intensities at the maximum of emission wavelength (400~410 nm) were recorded to calculate Scatchard plots. The dissociation constant of the protein/1-NPN complex (K1−NPN) was calculated from Scatchard plots and applied in the equation below to estimate ligand binding affinity. All 23 ligands (1 mM) used in competition experiments were dissolved in spectrally pure grade methanol. Three independent measurements were taken for binding data.
# [1] = target: T1, AcerOBP11m-Ile140 (Ile140Gly mutant) (Apis cerana, UniProt S5CRW7, I140G); test: Fluorescence competitive binding assay with 1-NPN, mutant AcerOBP11m-Ile140
# T1 sequence (S5CRW7 1-142 I140G): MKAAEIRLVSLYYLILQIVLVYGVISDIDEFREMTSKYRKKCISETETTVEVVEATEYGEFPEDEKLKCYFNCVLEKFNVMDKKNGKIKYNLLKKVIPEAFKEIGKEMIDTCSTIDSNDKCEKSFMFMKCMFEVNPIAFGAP
# Experimental: as §1, with “Fluorescence experiments on AcerOBP11 with N-phenyl-1-naphthylamine (1-NPN) were carried out on a Shimadzu RF-5301 spectrofluorimeter using a quartz cuvette in a right-angle configuration. The interactions” for “The interactions”
# (§2) In order to verify whether the predicted interaction sites played a role in the binding of AcerOBP11 protein with ligands, site-directed mutagenesis of the corresponding amino acid was carried out. The mutant primers were designed by a partial overlap method before synthesis. The plasmids of pET-32a/AcerOBP11 wild-type were mutated by using fast mutagenesis system kit (Transgen, CN) and then transformed into BL21 (DE3) competent cells. The mutant plasmids of target sites were confirmed by sequencing, and then the mutant proteins were obtained by the induction and purification in the same method as AcerOBP11 wild-type above. The secondary structure of purified AcerOBP11 recombinant protein mutants was also analyzed using circular dichroism (CD) spectrometry (815 type, Jasco, JP). The mutant proteins were used for competitive fluorescence experiments with the six candidate ligands chosen from the previous section. The target amino acids and binding mode of AcerOBP11 binding with candidate ligands were acquired by comparing the dissociation constant KD between wild-type and mutant AcerOBP11. Statistical analysis data (mean ± SE) of KD values for the same mutated amino acid site were also used as one-way analysis of variance (ANOVA) followed by a mean LSD test.
# [2] = target: T2, AcerOBP11m-Phe101 (Phe101Gly mutant) (Apis cerana, UniProt S5CRW7, F101G); test: Fluorescence competitive binding assay with 1-NPN, mutant AcerOBP11m-Phe101; conditions: for change of KD compared with AcerOBP11-wt: AcerOBP11m-Phe101 vs wild-type
# T2 sequence (S5CRW7 1-142 F101G): T1 sequence (S5CRW7 1-142 I140G) with F101G, G140I
# Experimental: as §1, with “Fluorescence experiments on AcerOBP11 with N-phenyl-1-naphthylamine (1-NPN) were carried out on a Shimadzu RF-5301 spectrofluorimeter using a quartz cuvette in a right-angle configuration. The interactions” for “The interactions”
# as §2
# [3] = target: T3, AcerOBP11m-Ile97 (Ile97Gly mutant) (Apis cerana, UniProt S5CRW7, I97G); test: Fluorescence competitive binding assay with 1-NPN, mutant AcerOBP11m-Ile97
# T3 sequence (S5CRW7 1-142 I97G): T1 sequence (S5CRW7 1-142 I140G) with I97G, G140I
# Experimental: as §1, with “Fluorescence experiments on AcerOBP11 with N-phenyl-1-naphthylamine (1-NPN) were carried out on a Shimadzu RF-5301 spectrofluorimeter using a quartz cuvette in a right-angle configuration. The interactions” for “The interactions”
# as §2
# ASP1 = target: ASP1; design: method as in Weng et al., 2013; conditions: ref Weng et al., 2013; cited from earlier work
# ASP2 = target: ASP2; design: method as in Li et al., 2013; conditions: ref Li et al., 2013; cited from earlier work
# [4] = calculated from IC50, KD = [IC50]/(1+[1-NPN]/K1-NPN), Table 1, read-out: KD
# [5] = displacement of 1-NPN, 1 μmol/L protein in PBS, 25°C, Table 1, read-out: [IC50]
# [6] = AcerOBP11m-Ile140, Table S4, mean ± SE, read-out: KD
# [7] = AcerOBP11m-Ile140, Table S4, mean ± SE, read-out: [IC50]
# [8] = KD, calculated from IC50, KD = [IC50]/(1+[1-NPN]/K1-NPN), Table 1
# [9] = [IC50], AcerOBP11-wt, Table S4, mean ± SE
# [10] = [IC50], displacement of 1-NPN, 1 μmol/L protein in PBS, 25°C, Table 1
# [11] = AcerOBP11m-Phe101, Table S4, mean ± SE, read-out: KD
# [12] = AcerOBP11m-Phe101, Table S4, mean ± SE, read-out: [IC50]
# [13] = AcerOBP11m-Ile97, Table S4, mean ± SE, read-out: KD
# [14] = AcerOBP11m-Ile97, Table S4, mean ± SE, read-out: [IC50]
# [15] = KD, AcerOBP11-wt, Table S4, mean ± SE
# Chain of recombinant AcerOBP11 (S5CRW7 entry or part of it): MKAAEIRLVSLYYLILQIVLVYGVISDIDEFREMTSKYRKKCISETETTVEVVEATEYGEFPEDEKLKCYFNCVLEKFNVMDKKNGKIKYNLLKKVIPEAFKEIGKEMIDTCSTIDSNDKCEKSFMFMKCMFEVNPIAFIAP
smiles,measurement,setting,value
CC1CCC(C(C)C)C(O)C1 (racemic) [DL-Menthol],IC50,recombinant AcerOBP11,26.2 µM
same,Kd,recombinant AcerOBP11,4.34 µM
"CC12CCC(CC1)C(C)(C)O2 [1,8-Cineole]",IC50,recombinant AcerOBP11,21.1 µM
same,Kd,recombinant AcerOBP11; [4],4.3 µM
CCCCCC(C)=O [2-Heptanone],Kd,recombinant AcerOBP11; [4],4.32 µM
same,IC50,recombinant AcerOBP11; [5],31.1 µM
"Cc1ccc(C=O)cc1C [3,4-Dimethylbenzaldehyde]",Kd,recombinant AcerOBP11; [4],4.76 µM
same,IC50,recombinant AcerOBP11; [5],36.7 µM
CC1=CCC2C(C1)C2(C)C (stereo not drawn) [3-Carene],Kd,recombinant AcerOBP11; [4],9.79 µM
C=CCc1ccc(OC)c(OC)c1 [4-Allylveratrole],Kd,[1]; [6],4.28 ± 0.279 µM
same,IC50,[1]; [7],22.5 ± 1.46 µM
same,Kd,recombinant AcerOBP11; [8],2.67 µM
same,IC50,recombinant AcerOBP11; [9],21 ± 0.22 µM
same,IC50,recombinant AcerOBP11; [10],16.8 µM
same,Kd,[2]; [11],4.84 ± 0.092 µM
same,IC50,[2]; [12],20.1 ± 0.381 µM
same,change of KD compared with AcerOBP11-wt,[2],did not observe significant increases
same,Kd,[3]; [13],5.83 ± 0.06 µM
same,IC50,[3]; [14],25.823 ± 0.022 µM
same,change of KD compared with AcerOBP11-wt,[3]; AcerOBP11m-Ile97 vs wild-type,significantly increased
"CC(=O)CCCCC/C=C/C(=O)O [9-ODA, (E)-9-oxo-2-decanoic acid]",Kd,recombinant AcerOBP11; [4],6.67 µM
same,IC50,recombinant AcerOBP11; [5],36.9 µM
same,Kd,recombinant AcerOBP11; read-out: KD,< 10 µM
CCCCCCCCCCCCCCCC(=O)OCC [Ethyl palmitate],Kd,[1]; [6],5.34 ± 0.167 µM
same,IC50,[1]; [7],16.6 ± 0.52 µM
same,Kd,recombinant AcerOBP11; [15],3.788 ± 0.012 µM
same,Kd,recombinant AcerOBP11; [8],3.82 µM
same,IC50,recombinant AcerOBP11; [9],24.39 ± 0.076 µM
same,IC50,recombinant AcerOBP11; [10],19.4 µM
same,Kd,[2]; [11],3.89 ± 0.143 µM
same,IC50,[2]; [12],20.3 ± 0.747 µM
same,change of KD compared with AcerOBP11-wt,[2],did not observe significant increases
same,Kd,[3]; [13],1.86 ± 0.022 µM
same,IC50,[3]; [14],6.61 ± 0.076 µM
CC(C)=CCC/C(C)=C/CC/C(C)=C/CO [Farnesol],Kd,[1]; [6],4.93 ± 0.133 µM
same,IC50,[1]; [7],19.9 ± 0.536 µM
same,Kd,recombinant AcerOBP11; [8],4.71 µM
same,IC50,recombinant AcerOBP11; [9],20.6 ± 0.237 µM
same,IC50,recombinant AcerOBP11; [10],32.2 µM
same,Kd,[2]; [11],3.14 ± 0.072 µM
same,IC50,[2]; [12],17.8 ± 0.411 µM
same,Kd,[3]; [13],5.24 ± 0.069 µM
same,IC50,[3]; [14],21.3 ± 0.237 µM
same,change of KD compared with AcerOBP11-wt,[3]; AcerOBP11m-Ile97 vs wild-type,significantly increased
CC(C)=CCC/C(C)=C/CO [Geraniol],Kd,recombinant AcerOBP11; [8],8.58 µM
same,IC50,recombinant AcerOBP11; [10],39.9 µM
"COC(=O)c1ccc(O)cc1 [HOB, methyl p-hydroxybenzoate]",IC50,[1],5.57 ± 0.114 µM
same,Kd,[1],1.91 ± 0.039 µM
same,Kd,recombinant AcerOBP11; KD,< 10 µM
same,Kd,recombinant AcerOBP11; [8],1.35 µM
same,IC50,recombinant AcerOBP11; [9],8.31 ± 0.156 µM
same,IC50,recombinant AcerOBP11; [10],8.33 µM
same,IC50,[2],6.257 ± 0.025 µM
same,Kd,[2],1.447 ± 0.006 µM
same,change of KD compared with AcerOBP11-wt,[2],did not observe significant increases
same,IC50,[3],6.09 ± 0.156 µM
same,Kd,[3],1.48 ± 0.045 µM
CC(=O)OCCC(C)C [Isoamyl acetate],Kd,[1]; [6],3.99 ± 0.221 µM
same,IC50,[1]; [7],12.9 ± 0.697 µM
same,increase of KD compared with AcerOBP11-wt,"[1]; AcerOBP11m-Ile140 vs wild-type, p < 0.01",1.8 fold
same,Kd,recombinant AcerOBP11; [8],3.3 µM
same,IC50,recombinant AcerOBP11; [9],16.88 ± 0.144 µM
same,IC50,recombinant AcerOBP11; [10],24 µM
same,Kd,[2]; [11],2.61 ± 0.063 µM
same,IC50,[2]; [12],10.7 ± 0.26 µM
same,change of KD compared with AcerOBP11-wt,[2],did not observe significant increases
same,Kd,[3]; [13],4.544 ± 0.022 µM
same,IC50,[3]; [14],17.75 ± 0.144 µM
same,change of KD compared with AcerOBP11-wt,[3]; AcerOBP11m-Ile97 vs wild-type,significantly increased
C=CC(C)(O)CCC=C(C)C (stereo not drawn) [Linalool],IC50,recombinant AcerOBP11,55 µM
same,Kd,recombinant AcerOBP11,9.53 µM
CCCCCCCC/C=C\CCCCCCCC(=O)OC [Methyl oleate],relative fluorescence of 1-NPN,recombinant AcerOBP11; ligand 1-11 μmol/L,≥ 50%
CCCCCCCCCCCCCCCC(=O)OC [Methyl palmitate],Kd,recombinant AcerOBP11; [4],4.38 µM
same,IC50,recombinant AcerOBP11; [5],21 µM
COC(=O)c1ccccc1O [Methyl salicylate],IC50,recombinant AcerOBP11,40 µM
same,Kd,recombinant AcerOBP11,6.83 µM
C=CC(=C)CCC=C(C)C [Myrcene],Kd,recombinant AcerOBP11; [4],10.7 µM
same,IC50,recombinant AcerOBP11; [5],45.7 µM
CCCCCCCCCCCCCC(=O)O [Myristic acid],IC50,recombinant AcerOBP11,45.2 µM
same,Kd,recombinant AcerOBP11,7.71 µM
CC(C)=CCC/C(C)=C\CO [Nerol],Kd,recombinant AcerOBP11; [8],6.13 µM
same,IC50,recombinant AcerOBP11; [10],33.9 µM
O=CCc1ccccc1 [Phenylacetaldehyde],IC50,recombinant AcerOBP11,21.6 µM
same,Kd,recombinant AcerOBP11,3.75 µM
CCCCCCO [n-hexanol],Kd,[1]; [6],3.19 ± 0.076 µM
same,IC50,[1]; [7],11.8 ± 0.283 µM
same,Kd,recombinant AcerOBP11; [15],2.79 ± 0.104 µM
same,Kd,recombinant AcerOBP11; [8],2.79 µM
same,IC50,recombinant AcerOBP11; [9],21.1 ± 0.785 µM
same,Kd,[2]; [11],2.321 ± 0.02 µM
same,IC50,[2]; [12],14.26 ± 0.124 µM
same,Kd,[3]; [13],10.1 ± 0.456 µM
same,IC50,[3]; [14],33.4 ± 0.785 µM
same,change of KD compared with AcerOBP11-wt,[3]; AcerOBP11m-Ile97 vs wild-type,significantly increased
same,increase of KD compared with AcerOBP11-wt,"[3]; AcerOBP11m-Ile97 vs wild-type, p < 0.01",3.60 fold
CC(=O)/C=C/C1=C(C)CCCC1(C)C [β- Ionone],Kd,ASP1,14.7 µM
same,Kd,ASP2,5.14 µM
same,Kd,recombinant AcerOBP11; [8],3.79 µM
same,IC50,recombinant AcerOBP11; [10],21.1 µM
